Assay results taken from the supplement of paper PMC8671470.

What was measured:
Conditions in all cases: 72 h
HL-60 [1] = test: cell viability (% survival relative to DMSO control); higher = less cytotoxic
Outline: (§1)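 In 384-well plates, the full library was rescreened in duplicate on HL-60 cells in RPMI 1640 with 10% FBS, at 1–10,000 nM in five tenfold concentrations, for 72 h at 37 °C, 5% CO2. Each run also held DMSO or 100 nM of one of three metabolic inhibitors. Viability was measured by CellTiter-Glo and normalised to DMSO wells and to wells with proteasome inhibitor, present at 10 μM. Any area under the curve comes from four-parameter log-logistic fitting with drc and PharmacoGx.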

HL-60 [2] = test: area under dose-response curve (viability, 1 nM-10 uM) (fraction (0-1)); higher = more sensitive
Outline: as §1

[3] = system: myeloid leukemia patient primary cells Pat.3; test: cell viability (% survival relative to DMSO control); higher = less cytotoxic
Outline: (§2)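 Mononuclear cells from patients with AML or CML were thawed, purified on Ficoll and placed in RPMI 1640 with 10% FBS at 10,000 cells/well on 384-well plates. The plates came pre-printed with 70 compounds at five tenfold concentrations spanning 1–10,000 nM, in duplicate, and cells were exposed for 72 h. CellTiter-Glo gave viability, scaled between DMSO wells and wells with 10 μM proteasome inhibitor. Where reported, area under the curve was obtained from log-logistic fits with four parameters using the drc and PharmacoGx R packages.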

[4] = system: myeloid leukemia patient primary cells Pat.13; test: as above
Outline: as §2

[5] = system: myeloid leukemia patient primary cells Pat.8; test: as above
Outline: as §2

[6] = system: myeloid leukemia patient primary cells Pat.5; test: as above
Outline: as §2

[7] = system: myeloid leukemia patient primary cells Pat.7; test: as above
Outline: as §2

[8] = system: myeloid leukemia patient primary cells Pat.9; test: as above
Outline: as §2

[9] = system: myeloid leukemia patient primary cells Pat.3; test: area under dose-response curve (viability, 1 nM-10 uM) (fraction (0-1)); higher = more sensitive
Experimental: (§3)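 AUC (0–1, higher = more sensitive) of the 5-point dose–response (1 nM–10 µM, 72 h, CellTiter-Glo) in primary AML/CML patient mononuclear cells. 0.030103 is the floor for inactive compounds.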

[10] = system: myeloid leukemia patient primary cells Pat.4; test: as above
Experimental: as §3

[11] = system: myeloid leukemia patient primary cells Pat.13; test: as above
Experimental: as §3

[12] = system: myeloid leukemia patient primary cells Pat.8; test: as above
Experimental: as §3

[13] = system: myeloid leukemia patient primary cells Pat.5; test: as above
Experimental: as §3

[14] = system: myeloid leukemia patient primary cells Pat.11; test: as above
Experimental: as §3

[15] = system: myeloid leukemia patient primary cells Pat.1; test: as above
Experimental: as §3

[16] = system: myeloid leukemia patient primary cells Pat.6; test: as above
Experimental: as §3

[17] = system: myeloid leukemia patient primary cells Pat.14; test: as above
Experimental: as §3

[18] = system: myeloid leukemia patient primary cells Pat.2; test: as above
Experimental: as §3

[19] = system: myeloid leukemia patient primary cells Pat.10; test: as above
Experimental: as §3

[20] = system: myeloid leukemia patient primary cells Pat.12; test: as above
Experimental: as §3

[21] = system: myeloid leukemia patient primary cells Pat.7; test: as above
Experimental: as §3

[22] = system: myeloid leukemia patient primary cells Pat.9; test: as above
Experimental: as §3

OC[C@H]1N[C@@H](c2c[nH]c3c(O)ncnc23)[C@H](O)[C@@H]1O [Forodesine]
cell viability [%], HL-60 [1]
Conditions | 0.001 µM | 0.01 µM | 0.1 µM | 1 µM | 10 µM
co-treatment: AZD3965 100 nM | 97.5 | 105 | 101 | 101 | 94
co-treatment: DMSO vehicle | 101 | 105 | 105 | 99.2 | 100.1
co-treatment: GSK2194069 100 nM | 100 | 103 | 96.2 | 98.2 | 95.9
co-treatment: pictilisib 100 nM | 79.7 | 93.3 | 99.5 | 95.3 | 103.8

HL-60 [2]
Conditions | area under dose-response curve
co-treatment: AZD3965 100 nM | < 0.0301
co-treatment: DMSO vehicle | < 0.0301
co-treatment: GSK2194069 100 nM | < 0.0301
co-treatment: pictilisib 100 nM | < 0.0301

NC(CCC(=O)NC(CSCc1ccc(Br)cc1)C(=O)NCC(=O)OC1CCCC1)C(=O)OC1CCCC1 (stereo not drawn) [S-para-Bromobenzylglutathione cyclopentyl diester]
cell viability [%], HL-60 [1]
Conditions | 0.001 µM | 0.01 µM | 0.1 µM | 1 µM | 10 µM
co-treatment: AZD3965 100 nM | 101 | 98.9 | 102 | 91.1 | 77.1
co-treatment: DMSO vehicle | 102 | 91.6 | 106 | 97.4 | 94.4
co-treatment: GSK2194069 100 nM | 104.2 | 85.8 | 110 | 95 | 87.2
co-treatment: pictilisib 100 nM | 97.1 | 87.5 | 113 | 76.7 | 55.5

HL-60 [2]
Conditions | area under dose-response curve
co-treatment: DMSO vehicle | < 0.0301
co-treatment: GSK2194069 100 nM | < 0.0301
co-treatment: pictilisib 100 nM | 0.0772

CC(C)(CS(=O)(=O)[O-])NC(=O)CC[N+](C)(C)CCO
cell viability [%], HL-60 [1]
Conditions | 0.001 µM | 0.01 µM | 0.1 µM | 1 µM | 10 µM
co-treatment: AZD3965 100 nM | 101 | 89.5 | 116 | 122 | 94.1
co-treatment: DMSO vehicle | 95.9 | 98.4 | 107.3 | 106 | 100
co-treatment: GSK2194069 100 nM | 105 | 95.2 | 102 | 111 | 99.7
co-treatment: pictilisib 100 nM | 102 | 79.9 | 107 | 115 | 99.9

HL-60 [2]
Conditions | area under dose-response curve
co-treatment: AZD3965 100 nM | < 0.0301
co-treatment: DMSO vehicle | < 0.0301
co-treatment: GSK2194069 100 nM | < 0.0301
co-treatment: pictilisib 100 nM | < 0.0301

O=C(Oc1cccc(F)c1OC(=O)c1cccc(O)c1)c1cccc(O)c1 [WZB117]
cell viability [%], HL-60 [1]
Conditions | 0.001 µM | 0.01 µM | 0.1 µM | 1 µM | 10 µM
co-treatment: AZD3965 100 nM | 102.1 | 97.3 | 103.1 | 101.6 | 68.9
co-treatment: DMSO vehicle | 103 | 98.8 | 99 | 101 | 73.3
co-treatment: GSK2194069 100 nM | 102 | 91.2 | 95.2 | 99.8 | 84.6
co-treatment: pictilisib 100 nM | 111 | 100 | 96.8 | 97.1 | 70.9

cell viability [%]
Conditions | [3] | [4] | [5] | [6] | [7] | [8]
1 nM | 96.7 | 94.5 | 95.5 | 96.4 | 89.6 | 60.3
10 nM | 71.3 | 86.2 | 67.8 | 23.7 | 97.1 | 27.8
100 nM | 83 | 78.5 | 79.7 | 4.78 | 85.6 | 46.5
1000 nM | 72.5 | 91 | 51.9 | 26.1 | 87.9 | 59.5
10000 nM | < 0 | 63.9 | 11 | 3.37 | 8.3 | 2.92

Conditions | area under dose-response curve
[9] | 0.162
[10] | 0.0833
[11] | < 0.0301
[12] | 0.211
[13] | 0.748
[14] | 0.0511
[15] | 0.0346
[16] | < 0.0301
[17] | 0.107
[18] | 0.0336
[19] | 0.176
[20] | 0.0633
[21] | 0.119
[22] | 0.223

N#Cc1ccc(C2CCCc3cncn32)cc1 (stereo not drawn) [Fadrozole]
cell viability [%], HL-60 [1]
Conditions | 0.001 µM | 0.01 µM | 0.1 µM | 1 µM | 10 µM
co-treatment: AZD3965 100 nM | 99.99 | 98.614 | 101 | 96.8 | 98.7
co-treatment: DMSO vehicle | 103 | 101 | 104 | 100 | 102.2
co-treatment: GSK2194069 100 nM | 105 | 97.3 | 101 | 112 | 100
co-treatment: pictilisib 100 nM | 103 | 101 | 113 | 113 | 107

HL-60 [2]
Conditions | area under dose-response curve
co-treatment: AZD3965 100 nM | < 0.0301
co-treatment: DMSO vehicle | < 0.0301
co-treatment: GSK2194069 100 nM | < 0.0301
co-treatment: pictilisib 100 nM | < 0.0301

N=C(N)c1ccc(N=NNc2ccc(C(=N)N)cc2)cc1 [Diminazene]
cell viability [%], HL-60 [1]
Conditions | 0.001 µM | 0.01 µM | 0.1 µM | 1 µM | 10 µM
co-treatment: AZD3965 100 nM | 94.9 | 98.5 | 106 | 93.1 | 101
co-treatment: DMSO vehicle | 101.5 | 100.7 | 99.712 | 101.22 | 100.7
co-treatment: GSK2194069 100 nM | 99.7 | 100 | 105 | 100.3 | 101.5
co-treatment: pictilisib 100 nM | 83.5 | 98 | 107.8 | 97.2 | 104

HL-60 [2]
Conditions | area under dose-response curve
co-treatment: AZD3965 100 nM | < 0.0301
co-treatment: DMSO vehicle | < 0.0301
co-treatment: GSK2194069 100 nM | < 0.0301
co-treatment: pictilisib 100 nM | < 0.0301
